From patent US20250114338A1, “TETRAHYDRO-PYRIDO[3,4-b]INDOLE ESTROGEN RECEPTOR MODULATORS AND USES THEREOF” (Genentech, Inc., priority 2014, published 2025)

System: ER-alpha MCF7
Test: ER-alpha MCF7 HCS EC50; stated as measured by in vitro cell proliferation assays of Examples 902 and 903
Assay type: cell-based
Conditions: Homo sapiens, MCF7, MCF7 cells; Table 2
Procedure, shortened: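 MCF7 cells seeded 1000-2000 cells/well for 16 h, then treated with nine-point 1:2 DMSO dilution series in quadruplicate at 37 °C, 5% CO2 for 4 days. Viable cells quantified by CellTiter-Glo ATP luminescence; EC50 calculated. Controls: fulvestrant at final 100 nM, DMSO 0.2% v/v.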

Row | SMILES | EC50 [nM]
1 | C[C@@H]1Cc2c([nH]c3ccccc23)[C@@H](c2c(F)cc(OC3CN(CCCF)C3)cc2F)N1C[C@@H](C)O [Example 264, (R)-1-((1R,3R)-1-(2,6-difluoro-4-((1-(3-fluoropropyl)azetidin-3-yl)oxy)phenyl)-3-methyl-1,3,4,9-tetrahydro-2H-pyrido[3,4-b]indol-2-yl)propan-2-ol] | 0.969
2 | C[C@@H]1Cc2c([nH]c3ccccc23)[C@@H](c2c(F)cc(OCCN3CC(CCl)C3)cc2F)N1CC(C)(C)F [Example 265, (1R,3R)-1-[4-[2-[3-(chloromethyl)azetidin-1-yl]ethoxy]-2,6-difluoro-phenyl]-2-(2-fluoro-2-methyl-propyl)-3-methyl-1,3,4,9-tetrahydropyrido[3,4-b]indole] | 1.7
3 | C[C@@H]1Cc2c([nH]c3ccccc23)[C@@H](c2ccc(OC3CN(CCCF)C3)c(Cl)c2)N1CC(C)(C)F [Example 266, (1R,3R)-1-[3-chloro-4-[1-(3-fluoropropyl)azetidin-3-yl]oxy-phenyl]-2-(2-fluoro-2-methyl-propyl)-3-methyl-1,3,4,9-tetrahydropyrido[3,4-b]indole] | 10
4 | C[C@@H]1Cc2c([nH]c3ccccc23)[C@@H](c2ccc(OC3CN(CCCF)C3)c(F)c2)N1CC(C)(C)F [Example 267, (1R,3R)-1-[3-fluoro-4-[1-(3-fluoropropyl)azetidin-3-yl]oxy-phenyl]-2-(2-fluoro-2-methyl-propyl)-3-methyl-1,3,4,9-tetrahydropyrido[3,4-b]indole] | 0.744
5 | C[C@@H]1Cc2c([nH]c3ccccc23)[C@@H](c2c(F)cc(OCCN3CC(CF)C3)cc2F)N1C[C@@H](O)CO [Example 268, (2R)-3-[(1R,3R)-1-[2,6-difluoro-4-[2-[3-(fluoromethyl)azetidin-1-yl]ethoxy]phenyl]-3-methyl-1,3,4,9-tetrahydropyrido[3,4-b]indol-2-yl]propane-1,2-diol] | 8
6 | C[C@@H]1Cc2c([nH]c3ccccc23)[C@@H](c2c(F)cc(OC3CN(C[C@@H]4C[C@H]4F)C3)cc2F)N1CC(C)(C)F [Example 269, (1R,3R)-1-[2,6-difluoro-4-[1-[[(1S,2R)-2-fluorocyclopropyl]methyl]azetidin-3-yl]oxy-phenyl]-2-(2-fluoro-2-methyl-propyl)-3-methyl-1,3,4,9-tetrahydropyrido[3,4-b]indole] | 1
7 | C[C@H](CF)CN1[C@H](c2c(F)cc(OCCN3CC(CF)C3)cc2F)c2[nH]c3ccccc3c2C[C@H]1C [Example 270, (1R,3R)-1-(2,6-difluoro-4-(2-(3-(fluoromethyl)azetidin-1-yl)ethoxy)phenyl)-2-((S)-3-fluoro-2-methylpropyl)-3-methyl-2,3,4,9-tetrahydro-1H-pyrido[3,4-b]indole] | 0.459
8 | C[C@@H]1Cc2c([nH]c3ccccc23)[C@@H](c2c(F)cc(OCCN3CC(CF)C3)cc2F)N1C[C@](C)(O)CO [Example 271, (S)-3-((1R,3R)-1-(2,6-difluoro-4-(2-(3-(fluoromethyl)azetidin-1-yl)ethoxy)phenyl)-3-methyl-1,3,4,9-tetrahydro-2H-pyrido[3,4-b]indol-2-yl)-2-methylpropane-1,2-diol] | 5
9 | C[C@@H]1Cc2c([nH]c3ccccc23)[C@@H](c2c(F)cc(OC3CN(CCCF)C3)cc2F)N1CC(C)(C)CF [Example 272, (1R,3R)-1-[2,6-difluoro-4-[1-(3-fluoropropyl)azetidin-3-yl]oxy-phenyl]-2-(3-fluoro-2,2-dimethyl-propyl)-3-methyl-1,3,4,9-tetrahydropyrido[3,4-b]indole] | 0.685
10 | C[C@@H]1Cc2c([nH]c3ccccc23)[C@@H](c2ccc(OCCN3CC(CF)C3)cc2F)N1C[C@@](C)(F)CO [Example 273, (R)-2-fluoro-3-((1R,3R)-1-(2-fluoro-4-(2-(3-(fluoromethyl)azetidin-1-yl)ethoxy)phenyl)-3-methyl-1,3,4,9-tetrahydro-2H-pyrido[3,4-b]indol-2-yl)-2-methylpropan-1-ol] | 0.28
11 | C[C@@H]1Cc2c([nH]c3ccccc23)[C@@H](c2ccc(OCCN3CC(CF)C3)cc2F)N1C[C@](C)(F)CO [Example 274, (S)-2-fluoro-3-((1R,3R)-1-(2-fluoro-4-(2-(3-(fluoromethyl)azetidin-1-yl)ethoxy)phenyl)-3-methyl-1,3,4,9-tetrahydro-2H-pyrido[3,4-b]indol-2-yl)-2-methylpropan-1-ol] | 0.253

The next lines start with the values.

Row | EC50 [nM] | SMILES
12 | 0.166 | C[C@@H]1Cc2c([nH]c3ccccc23)[C@@H](c2ccc(OCCN3CC(CF)C3)cc2)N1C[C@@](C)(F)CO [Example 275, (R)-2-fluoro-3-((1R,3R)-1-(4-(2-(3-(fluoromethyl)azetidin-1-yl)ethoxy)phenyl)-3-methyl-1,3,4,9-tetrahydro-2H-pyrido[3,4-b]indol-2-yl)-2-methylpropan-1-ol]
13 | 0.309 | C[C@@H]1Cc2c([nH]c3ccccc23)[C@@H](c2ccc(OCCN3CC(CF)C3)cc2)N1C[C@](C)(F)CO [Example 276, (S)-2-fluoro-3-((1R,3R)-1-(4-(2-(3-(fluoromethyl)azetidin-1-yl)ethoxy)phenyl)-3-methyl-1,3,4,9-tetrahydro-2H-pyrido[3,4-b]indol-2-yl)-2-methylpropan-1-ol]
14 | 0.09 | C[C@@H]1Cc2c([nH]c3ccccc23)[C@@H](c2c(F)cc(OC3CN(CCCF)C3)cc2F)N1CC(F)(F)F [Example 277, (1R,3R)-1-[2,6-difluoro-4-[1-(3-fluoropropyl)azetidin-3-yl]oxy-phenyl]-3-methyl-2-(2,2,2-trifluoroethyl)-1,3,4,9-tetrahydropyrido[3,4-b]indole]
15 | 0.31 | C[C@@H]1Cc2c([nH]c3ccccc23)[C@@H](c2c(F)cc(OCCN3CC(CF)C3)cc2F)N1C[C@@](C)(O)CO [Example 278, (2R)-3-[(1R,3R)-1-[2,6-difluoro-4-[2-[3-(fluoromethyl)azetidin-1-yl]ethoxy]phenyl]-3-methyl-1,3,4,9-tetrahydropyrido[3,4-b]indol-2-yl]-2-methyl-propane-1,2-diol]
16 | 0.16 | C[C@@H]1Cc2c([nH]c3ccccc23)[C@@H](c2ccc(OCCN3CC(CF)C3)c(F)c2)N1CC(C)(C)F [Example 279, (1R,3R)-2-(2-fluoro-2-methylpropyl)-1-(3-fluoro-4-(2-(3-(fluoromethyl)azetidin-1-yl)ethoxy)phenyl)-3-methyl-2,3,4,9-tetrahydro-1H-pyrido[3,4-b]indole]
17 | 6 | C[C@@H]1Cc2c([nH]c3ccccc23)[C@H](c2ccc(OCCN3CC(CF)C3)c(F)c2)N1CC(C)(C)F [Example 280, (1S,3R)-2-(2-fluoro-2-methylpropyl)-1-(3-fluoro-4-(2-(3-(fluoromethyl)azetidin-1-yl)ethoxy)phenyl)-3-methyl-2,3,4,9-tetrahydro-1H-pyrido[3,4-b]indole]
18 | 0.183 | C[C@@H]1Cc2c([nH]c3ccccc23)[C@@H](c2ccc(OCCN3CC(CF)C3)c(F)c2F)N1CC(C)(C)F [Example 281, (1R,3R)-1-(2,3-difluoro-4-(2-(3-(fluoromethyl)azetidin-1-yl)ethoxy)phenyl)-2-(2-fluoro-2-methylpropyl)-3-methyl-2,3,4,9-tetrahydro-1H-pyrido[3,4-b]indole]
19 | 1 | C[C@@H]1Cc2c([nH]c3ccccc23)[C@@H](c2c(F)cc(OC3CN(C[C@@H]4C[C@@H]4F)C3)cc2F)N1CC(C)(C)F [Example 282, (1R,3R)-1-(2,6-difluoro-4-((1-(((1S,2S)-2-fluorocyclopropyl)methyl)azetidin-3-yl)oxy)phenyl)-2-(2-fluoro-2-methylpropyl)-3-methyl-2,3,4,9-tetrahydro-1H-pyrido[3,4-b]indole]
20 | 1 | CC(=O)CN1[C@H](c2c(F)cc(OC3CN(CCCF)C3)cc2F)c2[nH]c3ccccc3c2C[C@H]1C [Example 283, 1-[(1R,3R)-1-[2,6-difluoro-4-[1-(3-fluoropropyl)azetidin-3-yl]oxy-phenyl]-3-methyl-1,3,4,9-tetrahydropyrido[3,4-b]indol-2-yl]propan-2-one]
21 | 0.382 | C[C@@H]1Cc2c([nH]c3ccccc23)[C@@H](c2c(F)cc(OC3CN(CCCF)C3)cc2F)N1CC(C)(C)CO [Example 284, 3-[(1R,3R)-1-[2,6-difluoro-4-[1-(3-fluoropropyl)azetidin-3-yl]oxy-phenyl]-3-methyl-1,3,4,9-tetrahydropyrido[3,4-b]indol-2-yl]-2,2-dimethyl-propan-1-ol]
22 | 2 | CCS(=O)(=O)N1[C@H](c2c(F)cc(OC3CN(CCCF)C3)cc2F)c2[nH]c3ccccc3c2C[C@H]1C [Example 285, (1R,3R)-1-[2,6-difluoro-4-[1-(3-fluoropropyl)azetidin-3-yl]oxy-phenyl]-2-ethylsulfonyl-3-methyl-1,3,4,9-tetrahydropyrido[3,4-b]indole]
23 | 0.0978 | C[C@@H]1Cc2c([nH]c3ccccc23)[C@@H](c2c(F)cc(OCCN3CC(CF)C3)cc2F)N1CC(F)(F)CO [Example 286, 3-[(1R,3R)-1-[2,6-difluoro-4-[2-[3-(fluoromethyl)azetidin-1-yl]ethoxy]phenyl]-3-methyl-1,3,4,9-tetrahydropyrido[3,4-b]indol-2-yl]-2,2-difluoro-propan-1-ol]
24 | 1 | C[C@@H]1Cc2c([nH]c3ccccc23)[C@@H](c2c(F)cc(OCCN3CC(CF)C3)cc2F)N1CC(C)(C)CO [Example 287, 3-[(1R,3R)-1-[2,6-difluoro-4-[2-[3-(fluoromethyl)azetidin-1-yl]ethoxy]phenyl]-3-methyl-1,3,4,9-tetrahydropyrido[3,4-b]indol-2-yl]-2,2-dimethyl-propan-1-ol]
25 | 0.0528 | C[C@@H]1Cc2c([nH]c3ccccc23)[C@@H](c2c(F)cc(NC3CN(CCCF)C3)cc2F)N1C[C@@](C)(F)CO [Example 288, (R)-3-((1R,3R)-1-(2,6-difluoro-4-((1-(3-fluoropropyl)azetidin-3-yl)amino)phenyl)-3-methyl-1,3,4,9-tetrahydro-2H-pyrido[3,4-b]indol-2-yl)-2-fluoro-2-methylpropan-1-ol]
